Each block holds one molecule with its values, some of them ahead of it.
Molecular target: MASP-2 CCP2-SP (Homo sapiens (Human), UniProt O00187)
Assay: MASP-2 co-crystallization, X-ray crystallography and structure analysis (H-bonds, van der Waals contacts);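 for Ligand-pharmacophore element distance, pharmacophore element C2: distance from averaged pharmacophore element to bound ligand; missing value means element absent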;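 for Ligand-pharmacophore element distance, pharmacophore element C3: distance from averaged pharmacophore element to bound ligand; missing value means element absent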;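 for Ligand-pharmacophore element distance, pharmacophore element C4: distance from averaged pharmacophore element to bound ligand; missing value means element absent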;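 for Ligand-pharmacophore element distance, pharmacophore element C5: distance from averaged pharmacophore element to bound ligand; missing value means element absent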
Set-up: van der Waals contact distance, MASP-2 HIS 483 atom CD2 / van der Waals contact distance, MASP-2 HIS 483 atom NE2 / van der Waals contact distance, SER 654 C to compound atom / van der Waals contact distance, SER 654 O to compound atom / van der Waals contact distance, TRP 655 C to compound atom / van der Waals contact distance, MASP-2 GLY 528 atom CA / van der Waals contact distance TRP 655 atom CZ3 / van der Waals contact distance TRP 655 atom N / van der Waals contact distance TRP 655 atom CE3 / van der Waals contact distance GLY 656 atom C / van der Waals contact distance GLY 656 atom CA / van der Waals contact distance GLY 656 atom O / van der Waals contact distance, MASP-2 TYR 607 atom CD1 / van der Waals contact distance, MASP-2 PRO 606 atom O / d(C3,CA1) / d(CA1,N1)2 / d(H4,O1) / d(H4,O2) / d(O1,O2) / d(CA1,O2) / d(CA6,O1) / d(CA6,O2) / d(CA1,C5) / d(O2,H3) / d(N2,C2) / d(CA5,N2) / d(N2,C4) / d(N2,C6) / d(N2,CA3) / d(N2,O3) / d(O4,H2): unit not given beside the values
Settings: for H-bond distance to MASP-2 ASP 627 atom OD2: ASP 627 OD2
From the text: This example illustrates the preparation of recombinant MASP-2 protein, based on UniProt O00187, human mannan-binding lectin serine protease 2. Expression constructs for human MASP-2 CCP2-SP and CCP2-SP-6HIS were generated for recombinant expression in E. coli cells.
Typically, crystallization hits were obtained by screening against […] 96-well crystallization reagent kits (GRAS6, GRAS2, Hampton Research; MORPHEUS, Molecular Dimensions; Wizard 1&2 Cryo, Rigaku Reagents) and crystal growth was inspected by optical microscopy. Crystals were used directly or further optimized for X-ray diffraction. Crystals were captured with cryogenic loops and dipped into liquid nitrogen directly or cryoprotected with a 20% glycerol in crystallization formulation before flash-cooling in liquid nitrogen.
Thereafter crystals are transferred once or twice for soaking within the crystallization solution containing the MASP-2 inhibitor.
Crystals were diffracted with synchrotron X-rays of […] and X-ray diffraction datasets were collected at beamlines SSRL BL9-2, BL14-1, BL12-2 as well as ALS sector 5 using Dectris Pilatus and Eiger detectors. Structures were determined by molecular replacement using portions of the structure 1Q3X as search models and partially refined with Buster 2.10.2 or Refmac 5.8. […] When multiple ligand poses were observed, for instance arising from multiple molecules in the asymmetric unit or refined dual poses within the same molecule, only one pose was selected and analyzed.
LigPlot+ calls these ‘nonbonded contacts’ or ‘hydrophobic contacts’. Despite the name, there are atom pairings that include possible H-bonds. Thus, in some instances, the Table A2 also contains H-bond interactions.

[1] = Table A7-1, between pharmacophore elements of the bound compound

Sequence of MASP-2 CCP2-SP (O00187 445-686): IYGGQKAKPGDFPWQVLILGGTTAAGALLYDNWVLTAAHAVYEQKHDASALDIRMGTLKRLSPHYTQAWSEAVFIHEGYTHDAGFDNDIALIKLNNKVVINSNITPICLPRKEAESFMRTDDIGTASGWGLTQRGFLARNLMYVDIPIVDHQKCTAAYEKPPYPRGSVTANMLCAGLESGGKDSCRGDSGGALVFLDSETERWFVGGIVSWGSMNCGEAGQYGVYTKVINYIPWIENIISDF
Sequence of MASP-2 CCP2-SP (O00187 364-432 partner): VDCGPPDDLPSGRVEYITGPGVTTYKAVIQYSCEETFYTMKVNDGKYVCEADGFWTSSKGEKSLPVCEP

- H-bond distance to MASP-2 ASP 627 atom OD2 (Table A1 (H-Bonds)): 2.91
- H-bond distance to MASP-2 GLY 656 atom N (Table A1 (H-Bonds), GLY 656 N): 3.35
- H-bond distance to MASP-2 SER 657 atom O (Table A1 (H-Bonds), SER 657 O): 2.85
- van der Waals contact distance, MASP-2 PHE 529 atom CE1 (Table A2-3): 3.27
- van der Waals contact distance, MASP-2 PHE 529 atom CE2 (Table A2-3): 3.73
- van der Waals contact distance, MASP-2 PRO 606 atom C (Table A2-4): 3.89
- van der Waals contact distance, MASP-2 PRO 606 atom O (Table A2-4): 3.73
- van der Waals contact distance GLY 656 atom C (Table A2-13, MASP-2 GLY 656 C): 3.7
- van der Waals contact distance TRP 655 atom O (Table A2-13, MASP-2 TRP 655 O): 3.25
- van der Waals contact distance GLY 656 atom N (Table A2-14, MASP-2 GLY 656 N): 3.86
- van der Waals contact distance SER 657 atom C (Table A2-14, MASP-2 SER 657 C, columns c12-c13 (inferred)): 3.73
- Ligand-pharmacophore element distance, pharmacophore element C2 (Table A4-1, element C2): 0
- Ligand-pharmacophore element distance, pharmacophore element C3 (Table A4-1, element C3): 0
- Ligand-pharmacophore element distance, pharmacophore element C4 (Table A4-1, element C4): 0
- Ligand-pharmacophore element distance, pharmacophore element C5 (Table A4-1, element C5): 0
- Ligand-pharmacophore element distance, pharmacophore element C6 (Table A4-1, element C6): 0
- Ligand-pharmacophore element distance, pharmacophore element C7 (Table A4-1, element C7): 0
- Ligand-pharmacophore element distance, pharmacophore element CA1 (Table A4-1, element CA1): 0.27
- Ligand-pharmacophore element distance, pharmacophore element CA2 (Table A4-1, element CA2): 0
- Ligand-pharmacophore element distance, pharmacophore element CA3 (Table A4-1, element CA3): 0
- Ligand-pharmacophore element distance, pharmacophore element CA4 (Table A4-1, element CA4): 0
- Ligand-pharmacophore element distance, pharmacophore element CA6 (Table A4-1, element CA6): 0
- d(O2,H3) (Table A5-2 pharmacophore distance, S3/S4 region): 3.99
- Pharmacophore torsion angle a(H4, O1, O2, H3) [1]: 57.29
- Pharmacophore torsion angle a(N1, CA1, O2, H4) [1]: −92.49
- Pharmacophore protein distance to MET_658 (first MET_658 column) (Table A8-6, 6th residue column, nearest protein atom in cell to the left): 2.38
- Pharmacophore protein distance to MET_658 (second MET_658 column) (Table A8-6, 9th residue column, nearest protein atom in cell to the left): 3.03
- Pharmacophore protein distance to SER_611 (Table A8-6, nearest protein atom in cell to the left): 2.19
Structure (SMILES): C[C@H](NC(=O)[C@H]1C[C@@H](c2ccccc2)CN1)C(=O)NCc1ccc(C(=N)N)cc1 [compound 1037]

- H-bond distance to MASP-2 ASP 627 atom OD2 (Table A1 (H-Bonds)): 3.11
- H-bond distance to MASP-2 SER 628 atom O (Table A1 (H-Bonds), SER 628 O): 2.38
- van der Waals contact distance, MASP-2 HIS 483 atom CD2 (Table A2-1): 3.68
- van der Waals contact distance, MASP-2 HIS 483 atom CE1 (Table A2-1): 3.81
- van der Waals contact distance, MASP-2 PHE 529 atom CZ (Table A2-3): 3.88
- van der Waals contact distance, SER 654 O to compound atom (Table A2-12): 3.51
- van der Waals contact distance, TRP 655 CA to compound atom (Table A2-12): 3.68
- van der Waals contact distance, MASP-2 amino acid atom to compound atom (Table A2 section before Table A2-8): 3.84
Structure (SMILES): C[C@H](NC(=O)[C@H]1C[C@@H](c2ccccc2)CCN1)C(=O)NCc1ccc(N)nc1 (stereo in doubt) [compound 1025]

Source: patent US12195427B2, “MASP-2 inhibitors and methods of use” (priority 2018, dated 2025)
